Assay results published in patent US11420973B2, “Amide substituted indole compounds useful as TLR inhibitors” (BRISTOL-MYERS SQUIBB COMPANY, priority 2017, dated 2022).

What was measured:
[1] = biological target: human TLR9 (Homo sapiens (Human), UniProt Q9NR96); experiment: TLR9 inhibition reporter assay (HEK-Blue SEAP reporter, ODN2006 stimulation); conditions: read-out: TLR9 IC50; HEK-Blue cells overexpressing human TLR9, ODN2006 5 nM, SEAP reporter;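 further: SEAP reporter under IFN-β minimal promoter with five NF-κB and AP-1 sites, 22 h incubation, compounds 0.05 nM–50 µM, inhibition relative to agonist plus DMSO versus known inhibitor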
[2] = biological target: human TLR8 (Homo sapiens (Human), UniProt Q9NR97); experiment: TLR8 inhibition reporter assay (HEK-Blue SEAP reporter, R848 stimulation); conditions: read-out: TLR8 IC50; HEK-Blue cells overexpressing human TLR8, R848 15.9 μM, SEAP reporter;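 further: SEAP driven by IFN-β minimal promoter with NF-κB and AP-1 sites, 22 h incubation, compounds 0.05 nM–50 µM, inhibition scaled between agonist plus DMSO and reference inhibitor wells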
[3] = biological target: human TLR7 (Homo sapiens (Human), UniProt Q9NYK1); experiment: TLR7 inhibition reporter assay (HEK-Blue SEAP reporter, gardiquimod stimulation); type: cell-based; conditions: HEK-Blue cells overexpressing human TLR7, gardiquimod 7.5 μM
Chain of human TLR7 (Q9NYK1 27-1049): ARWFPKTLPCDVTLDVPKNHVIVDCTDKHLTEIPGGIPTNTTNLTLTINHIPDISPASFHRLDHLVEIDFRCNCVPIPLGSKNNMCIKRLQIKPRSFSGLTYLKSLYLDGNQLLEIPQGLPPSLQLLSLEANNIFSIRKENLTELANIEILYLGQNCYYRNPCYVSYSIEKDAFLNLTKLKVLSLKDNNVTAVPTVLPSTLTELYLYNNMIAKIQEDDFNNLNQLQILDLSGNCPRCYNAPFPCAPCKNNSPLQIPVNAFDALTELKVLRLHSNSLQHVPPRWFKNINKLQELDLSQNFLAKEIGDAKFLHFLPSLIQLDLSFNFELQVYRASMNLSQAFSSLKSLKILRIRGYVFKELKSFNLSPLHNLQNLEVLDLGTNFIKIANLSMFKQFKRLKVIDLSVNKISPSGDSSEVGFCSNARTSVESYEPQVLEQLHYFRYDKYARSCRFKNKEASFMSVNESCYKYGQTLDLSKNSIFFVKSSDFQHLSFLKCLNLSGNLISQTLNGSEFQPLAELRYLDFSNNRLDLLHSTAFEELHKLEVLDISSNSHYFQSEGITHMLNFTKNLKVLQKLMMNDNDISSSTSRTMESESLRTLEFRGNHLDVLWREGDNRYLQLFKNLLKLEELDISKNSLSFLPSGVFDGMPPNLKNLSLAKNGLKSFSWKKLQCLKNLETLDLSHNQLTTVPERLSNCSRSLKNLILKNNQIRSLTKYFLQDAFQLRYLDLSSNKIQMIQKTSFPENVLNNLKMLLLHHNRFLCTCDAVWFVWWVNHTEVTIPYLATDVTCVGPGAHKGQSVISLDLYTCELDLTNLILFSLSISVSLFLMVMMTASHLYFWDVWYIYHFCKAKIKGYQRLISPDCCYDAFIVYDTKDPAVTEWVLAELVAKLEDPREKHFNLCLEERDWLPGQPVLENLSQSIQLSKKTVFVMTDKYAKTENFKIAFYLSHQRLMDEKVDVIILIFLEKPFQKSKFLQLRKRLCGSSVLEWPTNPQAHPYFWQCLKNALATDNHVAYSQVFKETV

Chain of human TLR9 (Q9NR96 26-1032): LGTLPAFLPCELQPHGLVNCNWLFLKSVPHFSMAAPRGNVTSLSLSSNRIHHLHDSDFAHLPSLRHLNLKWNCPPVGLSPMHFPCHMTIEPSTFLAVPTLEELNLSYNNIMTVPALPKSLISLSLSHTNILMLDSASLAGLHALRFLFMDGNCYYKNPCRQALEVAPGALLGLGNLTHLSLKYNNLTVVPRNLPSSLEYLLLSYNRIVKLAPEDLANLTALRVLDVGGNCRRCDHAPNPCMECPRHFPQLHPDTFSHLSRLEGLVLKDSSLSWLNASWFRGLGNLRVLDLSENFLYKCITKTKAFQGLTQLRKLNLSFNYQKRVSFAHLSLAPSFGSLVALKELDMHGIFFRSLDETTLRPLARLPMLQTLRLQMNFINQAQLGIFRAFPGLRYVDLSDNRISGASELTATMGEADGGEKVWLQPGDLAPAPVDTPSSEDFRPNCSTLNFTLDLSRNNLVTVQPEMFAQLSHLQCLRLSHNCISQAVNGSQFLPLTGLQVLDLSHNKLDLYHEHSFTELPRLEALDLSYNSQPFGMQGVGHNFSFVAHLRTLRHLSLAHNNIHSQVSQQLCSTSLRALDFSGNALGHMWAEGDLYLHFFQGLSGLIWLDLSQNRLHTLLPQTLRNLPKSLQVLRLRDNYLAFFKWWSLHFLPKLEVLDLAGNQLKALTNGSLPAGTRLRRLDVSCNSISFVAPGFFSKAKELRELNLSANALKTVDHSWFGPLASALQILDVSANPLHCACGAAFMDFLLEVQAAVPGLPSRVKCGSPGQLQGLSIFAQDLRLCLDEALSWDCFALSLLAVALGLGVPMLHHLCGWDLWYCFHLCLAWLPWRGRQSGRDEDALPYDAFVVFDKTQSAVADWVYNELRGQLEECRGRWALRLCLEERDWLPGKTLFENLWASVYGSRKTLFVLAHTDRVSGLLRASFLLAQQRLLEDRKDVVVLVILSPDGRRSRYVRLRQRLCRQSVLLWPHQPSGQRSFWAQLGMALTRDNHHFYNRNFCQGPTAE
Chain of human TLR8 (Q9NR97 27-1041): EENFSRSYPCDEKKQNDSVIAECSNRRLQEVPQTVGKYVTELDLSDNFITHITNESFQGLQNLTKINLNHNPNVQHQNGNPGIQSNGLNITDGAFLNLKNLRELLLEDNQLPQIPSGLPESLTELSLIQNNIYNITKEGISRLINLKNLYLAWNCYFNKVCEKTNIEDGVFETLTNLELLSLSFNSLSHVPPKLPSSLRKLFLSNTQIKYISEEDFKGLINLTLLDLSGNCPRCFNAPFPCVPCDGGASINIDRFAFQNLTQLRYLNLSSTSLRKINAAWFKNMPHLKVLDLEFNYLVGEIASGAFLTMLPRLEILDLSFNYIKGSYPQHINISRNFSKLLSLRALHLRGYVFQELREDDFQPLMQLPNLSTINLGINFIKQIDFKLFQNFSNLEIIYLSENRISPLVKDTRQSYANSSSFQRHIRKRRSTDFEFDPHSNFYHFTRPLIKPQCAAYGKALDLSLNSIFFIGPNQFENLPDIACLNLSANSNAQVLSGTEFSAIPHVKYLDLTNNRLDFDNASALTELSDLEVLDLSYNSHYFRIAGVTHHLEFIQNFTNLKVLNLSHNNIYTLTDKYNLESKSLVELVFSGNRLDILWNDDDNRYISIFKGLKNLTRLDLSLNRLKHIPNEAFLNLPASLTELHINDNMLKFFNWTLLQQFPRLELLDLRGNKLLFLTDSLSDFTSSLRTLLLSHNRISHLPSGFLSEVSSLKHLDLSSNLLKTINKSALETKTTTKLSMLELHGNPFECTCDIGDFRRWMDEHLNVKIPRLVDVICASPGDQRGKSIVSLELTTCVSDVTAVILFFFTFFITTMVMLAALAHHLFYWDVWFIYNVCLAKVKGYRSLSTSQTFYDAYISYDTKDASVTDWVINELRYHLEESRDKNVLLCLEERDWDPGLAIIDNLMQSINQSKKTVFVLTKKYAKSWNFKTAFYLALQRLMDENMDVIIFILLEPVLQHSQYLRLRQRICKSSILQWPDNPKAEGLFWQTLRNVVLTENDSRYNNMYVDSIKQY

Row | SMILES | IC50 [1] [nM] | IC50 [2] [nM] | IC50 [3] [nM]
1 | Cc1cc(-c2[nH]c3ccc(C(C)C(=O)N[C@H]4CCNC4)cc3c2C(C)C)ccn1 (stereo partly drawn) [Example 189, 2-(3-isopropyl-2-(2-methylpyridin-4-yl)-1H-indol-5-yl)-N—((S)-pyrrolidin-3-yl)propanamide] | 1680 | 246 | 268
2 | Cc1cc(-c2[nH]c3ccc(C(C)(C)C(=O)NC4CCC5CNCC54)cc3c2C(C)C)ccn1 (stereo not drawn) [Example 146, 2-(3-isopropyl-2-(2-methylpyridin-4-yl)-1H-indol-5-yl)-2-methyl-N-(octahydrocyclopenta[c]pyrrol-4-yl)propanamide] | 979 | 122 | 160
3 | CCN(CC)C(=O)C1CCCN(CC(=O)N2CC3CN(C(=O)c4ccc5[nH]c(-c6ccc(OC)c(OC)c6)c(C(C)C)c5c4)CC3C2)C1 (racemic) [Example 8, 1-(2-{5-[2-(3,4-dimethoxyphenyl)-3-(propan-2-yl)-1H-indole-5-carbonyl]-octahydropyrrolo[3,4-c]pyrrol-2-yl}-2-oxoethyl)-N,N-diethylpiperidine-3-carboxamide] | 7520 | 126 | 129
4 | Cc1cc(-c2[nH]c3ccc(C(=O)N(C)C)cc3c2C(C)C)cc(C)n1 [Example 94, 2-(2,6-dimethylpyridin-4-yl)-3-isopropyl-N,N-dimethyl-1H-indole-5-carboxamide] | > 50000 | 23 | 18
5 | Cc1cc(-c2[nH]c3ccc(C(C)C(=O)NC4CN5CCC4CC5)cc3c2C(C)C)ccn1 (stereo not drawn) [Example 191, 2-(3-isopropyl-2-(2-methylpyridin-4-yl)-1H-indol-5-yl)-N-(quinuclidin-3-yl)propanamide] | 1290 | 209 | 175
6 | Cc1cc(-c2[nH]c3ccc(C(C)C(=O)NC[C@@H](F)C(C)(C)O)cc3c2C(C)C)ccn1 (stereo partly drawn) [Example 130, N—((R)-2-fluoro-3-hydroxy-3-methylbutyl)-2-(3-isopropyl-2-(2-methylpyridin-4-yl)-1H-indol-5-yl)propanamide] | > 50000 | 818 | 748
7 | Cc1cc(-c2[nH]c3ccc(C(C)C(=O)N[C@@H]4CCCC[C@H]4N)cc3c2C(C)C)ccn1 (stereo partly drawn) [Example 215, N-((1R,2R)-2-aminocyclohexyl)-2-(3-isopropyl-2-(2-methylpyridin-4-yl)-1H-indol-5-yl)propanamide] | 1370 | 174 | 148
8 | Cc1cc(-c2[nH]c3ccc(C(C)C(=O)NC[C@@H]4CCNC4)cc3c2C(C)C)ccn1 (stereo partly drawn) [Example 208, 2-(3-isopropyl-2-(2-methylpyridin-4-yl)-1H-indol-5-yl)-N—(((R)-pyrrolidin-3-yl)methyl)propanamide] | 7310 | 2570 | 1290
9 | Cc1cc(-c2[nH]c3ccc(C(C)(C)C(=O)NC4CCC5CNCC54)cc3c2C(C)C)ccn1 (stereo not drawn) [Example 147, 2-(3-isopropyl-2-(2-methylpyridin-4-yl)-1H-indol-5-yl)-2-methyl-N-(octahydrocyclopenta[c]pyrrol-4-yl)propanamide] | 1210 | 92 | 109
10 | CCN(CC)C(=O)C1CCCN(CC(=O)N2CC3CN(C(=O)c4ccc5[nH]c(-c6ccc(OC)c(OC)c6)c(C(C)C)c5c4)CC3C2)C1 (single isomer, unassigned) [Example 10, 1-(2-{5-[2-(3,4-dimethoxyphenyl)-3-(propan-2-yl)-1H-indole-5-carbonyl]-octahydropyrrolo[3,4-c]pyrrol-2-yl}-2-oxoethyl)-N,N-diethylpiperidine-3-carboxamide] | 7630 | 114 | 111
11 | Cc1cc(-c2[nH]c3ccc(C(C)(C)C(=O)NCC4CCNCC4)cc3c2C(C)C)ccn1 [Example 164, 2-(3-isopropyl-2-(2-methylpyridin-4-yl)-1H-indol-5-yl)-2-methyl-N-(piperidin-4-ylmethyl)propanamide] | 2530 | 617 | 331
12 | CCc1c(-c2ccc(OC)c(OC)c2)[nH]c2ccc(C(=O)NCc3ccccn3)cc12 [Example 44, 2-(3,4-dimethoxyphenyl)-3-ethyl-N-(pyridin-2-ylmethyl)-1H-indole-5-carboxamide] | 44800 | 412 | 1940
13 | Cc1cc(-c2[nH]c3ccc(C(C)(C)C(=O)N4CCCCC4C4CCNCC4)cc3c2C(C)C)ccn1 (stereo not drawn) [Example 182, 1-([2,4′-bipiperidin]-1-yl)-2-(3-isopropyl-2-(2-methylpyridin-4-yl)-1H-indol-5-yl)-2-methylpropan-1-one] | 716 | 81 | 15
14 | CCN(CCN(C)C)C(=O)c1ccc2[nH]c(-c3cc(C)nc(C)c3)c(CC(F)F)c2c1 [Example 125, 3-(2,2-difluoroethyl)-N-(2-(dimethylamino)ethyl)-2-(2,6-dimethylpyridin-4-yl)-N-ethyl-1H-indole-5-carboxamide] | 727 | 23 | 19
15 | Cc1cc(-c2[nH]c3ccc(C(=O)N4CC5CN(C(C)C)CC5C4)cc3c2C(C)C)ccn1 (stereo not drawn) [Example 116, (3-isopropyl-2-(2-methylpyridin-4-yl)-1H-indol-5-yl)(5-isopropylhexahydropyrrolo[3,4-c]pyrrol-2(1H)-yl)methanone] | 985 | 3.6 | 117
16 | COc1ccc(-c2[nH]c3ccc(C(=O)N4CC5CN(C(=O)CN(C)C)CC5C4)cc3c2CC(F)(F)F)cc1OC (stereo not drawn) [Example 89, 1-(5-(2-(3,4-dimethoxyphenyl)-3-(2,2,2-trifluoroethyl)-1H-indole-5-carbonyl)hexahydropyrrolo[3,4-c]pyrrol-2(1H)-yl)-2-(dimethylamino)ethan-1-one] | 5860 | 217 | 914
17 | COc1cc(-c2[nH]c3ccc(C(=O)N4CC5CNCC5C4)cc3c2C(C)C)cn2ncnc12 (stereo not drawn) [Example 126, (hexahydropyrrolo[3,4-c]pyrrol-2(1H)-yl)(3-isopropyl-2-(8-methoxy-[1,2,4]triazolo[1,5-a]pyridin-6-yl)-1H-indol-5-yl)methanone] | 2410 | 233 | 29
18 | Cc1cc(-c2[nH]c3ccc(C(=O)N4CC5CN(C(=O)CN(C)C)CC5C4)cc3c2C(C)C)cc(C)n1 (stereo not drawn) [Example 111, 2-(dimethylamino)-1-(5-(2-(2,6-dimethylpyridin-4-yl)-3-isopropyl-1H-indole-5-carbonyl)hexahydropyrrolo[3,4-c]pyrrol-2(1H)-yl)ethanone] | 668 | 74 | 171

The next lines start with the values.

Row | IC50 [1] [nM] | IC50 [2] [nM] | IC50 [3] [nM] | SMILES
19 | 6180 | 34 | 188 | CCc1c(-c2ccc(OC)c(OC)c2)[nH]c2ccc(C(=O)N3CC[C@@H](N(C)C)C3)cc12 [Example 29, (R)-(2-(3,4-dimethoxyphenyl)-3-ethyl-1H-indol-5-yl)(3-(dimethylamino)pyrrolidin-1-yl)methanone]
20 | 1810 | 12 | 206 | CCc1c(-c2ccc(OC)c(OC)c2)[nH]c2ccc(C(=O)NCCC3CCCN3C)cc12 (stereo not drawn) [Example 54, 2-(3,4-dimethoxyphenyl)-3-ethyl-N-(2-(1-methylpyrrolidin-2-yl)ethyl)-1H-indole-5-carboxamide]
21 | 5880 | 16 | 156 | CCc1c(-c2ccc(OC)c(OC)c2)[nH]c2ccc(C(=O)N(C)CCCN(C)C)cc12 [Example 74, 2-(3,4-dimethoxyphenyl)-N-(3-(dimethylamino)propyl)-3-ethyl-N-methyl-1H-indole-5-carboxamide]
22 | > 50000 | 190 | 595 | CCc1c(-c2ccc(OC)c(OC)c2)[nH]c2ccc(C(=O)N3CCCN(C(C)=O)CC3)cc12 [Example 35, 1-(4-(2-(3,4-dimethoxyphenyl)-3-ethyl-1H-indole-5-carbonyl)-1,4-diazepan-1-yl)ethan-1-one]
23 | 16600 | 2190 | 1280 | CCc1c(-c2ccc(OC)c(OC)c2)[nH]c2ccc(C(=O)N3CCCN(c4ncccn4)CC3)cc12 [Example 64, (2-(3,4-dimethoxyphenyl)-3-ethyl-1H-indol-5-yl)(4-(pyrimidin-2-yl)-1,4-diazepan-1-yl)methanone]
24 | 429 | 54 | 99 | COc1ccc(-c2[nH]c3ccc(C(=O)N4CC5CN(C6CCN(C)CC6)CC5C4)cc3c2C(C)C)cc1OC (stereo not drawn) [Example 15, (2-(3,4-dimethoxyphenyl)-3-isopropyl-1H-indol-5-yl)(5-(1-methylpiperidin-4-yl)hexahydropyrrolo[3,4-c]pyrrol-2(1H)-yl)methanone]
25 | 5270 | 1.2 | 299 | CCc1c(-c2ccc(OC)c(OC)c2)[nH]c2ccc(C(=O)N3CCN(C(C)C)CC3)cc12 [Example 38, (2-(3,4-dimethoxyphenyl)-3-ethyl-1H-indol-5-yl)(4-isopropylpiperazin-1-yl)methanone]
26 | > 50000 | 115 | 206 | CCc1c(-c2ccc(OC)c(OC)c2)[nH]c2ccc(C(=O)N3CCN(C(=O)c4ccco4)CC3)cc12 [Example 60, (2-(3,4-dimethoxyphenyl)-3-ethyl-1H-indol-5-yl)(4-(furan-2-carbonyl)piperazin-1-yl)methanone]
27 | 7240 | 1630 | 1210 | CCc1c(-c2ccc(OC)c(OC)c2)[nH]c2ccc(C(=O)N3CCCN(c4ccccn4)CC3)cc12 [Example 65, (2-(3,4-dimethoxyphenyl)-3-ethyl-1H-indol-5-yl)(4-(pyridin-2-yl)-1,4-diazepan-1-yl)methanone]
